Measured values: ChEMBL document CHEMBL1146264, “Estrogen receptor beta ligands: design and synthesis of new 2-phenyl-isoindole-1,3-diones” (Bioorg Med Chem Lett, 2007)

Experiments:
Estrogen receptor beta = Estrogen receptor beta (Homo sapiens, UniProt Q92731)
Description: Inhibition of human LBD of ERbeta

Estrogen receptor = molecular target: T1, Estrogen receptor (Homo sapiens, UniProt P03372)
T1 sequence (P03372 whole entry): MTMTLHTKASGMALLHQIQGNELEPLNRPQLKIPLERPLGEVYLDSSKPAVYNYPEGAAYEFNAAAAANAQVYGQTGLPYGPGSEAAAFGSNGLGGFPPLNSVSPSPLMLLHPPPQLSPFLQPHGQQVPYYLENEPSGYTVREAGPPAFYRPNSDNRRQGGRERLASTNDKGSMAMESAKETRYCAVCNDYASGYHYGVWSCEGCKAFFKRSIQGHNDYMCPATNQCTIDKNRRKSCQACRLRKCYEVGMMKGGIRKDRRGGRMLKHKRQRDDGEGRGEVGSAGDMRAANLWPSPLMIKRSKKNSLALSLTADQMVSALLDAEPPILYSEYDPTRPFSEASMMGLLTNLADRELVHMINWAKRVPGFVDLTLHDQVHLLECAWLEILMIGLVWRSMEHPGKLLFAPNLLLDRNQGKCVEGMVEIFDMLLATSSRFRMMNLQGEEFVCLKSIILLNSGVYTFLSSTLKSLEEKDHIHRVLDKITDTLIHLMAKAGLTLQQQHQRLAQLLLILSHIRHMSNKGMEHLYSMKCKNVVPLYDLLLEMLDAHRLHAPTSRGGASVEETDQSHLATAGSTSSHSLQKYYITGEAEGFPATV
Description: Inhibition of human LBD of ERalpha

Homo sapiens = species: Homo sapiens; test: Selectivity for human LBD of ERbeta over human LBD of ERalpha

Sequence of Estrogen receptor beta (Q92731 whole entry): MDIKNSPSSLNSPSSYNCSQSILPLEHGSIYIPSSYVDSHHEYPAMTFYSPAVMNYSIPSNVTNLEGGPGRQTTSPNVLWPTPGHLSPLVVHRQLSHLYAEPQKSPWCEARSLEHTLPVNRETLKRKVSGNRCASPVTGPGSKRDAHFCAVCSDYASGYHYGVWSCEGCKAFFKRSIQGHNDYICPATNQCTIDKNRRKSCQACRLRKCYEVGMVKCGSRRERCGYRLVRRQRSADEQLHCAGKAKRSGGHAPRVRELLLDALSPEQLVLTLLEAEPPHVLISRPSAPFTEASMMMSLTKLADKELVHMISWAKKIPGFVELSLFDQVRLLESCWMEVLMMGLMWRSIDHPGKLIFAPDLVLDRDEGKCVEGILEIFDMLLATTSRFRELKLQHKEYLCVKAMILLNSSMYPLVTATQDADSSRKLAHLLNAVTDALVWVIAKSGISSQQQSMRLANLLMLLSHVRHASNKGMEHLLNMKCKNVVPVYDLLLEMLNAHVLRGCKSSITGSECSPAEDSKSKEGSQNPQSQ

For `COc1ccc(N2C(=O)c3ccc(O)cc3C2=O)cc1`, the IC50 (Estrogen receptor beta) was > 5000 nM and the IC50 (Estrogen receptor) was 3300 nM.
`O=C1c2ccc(O)cc2C(=O)N1c1ccc(O)c2ccccc12` was tested, and the IC50 (Estrogen receptor beta) was 560 nM, the Ratio IC50 (Homo sapiens) was 0.2 and the IC50 (Estrogen receptor) was 2640 nM.
In the case of `O=C1c2cc(O)cc(Br)c2C(=O)N1c1ccc(O)cc1`, the IC50 (Estrogen receptor beta) is reported as 1620 nM, the Ratio IC50 (Homo sapiens) is reported as 45 and the IC50 (Estrogen receptor) is reported as 36 nM.
In the case of `O=C1c2ccc(O)cc2C(=O)N1c1ccc(O)cc1`, the IC50 (Estrogen receptor beta) is reported as 1980 nM, the Ratio IC50 (Homo sapiens) is reported as 24 and the IC50 (Estrogen receptor) is reported as 84 nM.
`O=C1c2ccccc2C(=O)N1c1ccc(O)cc1` was tested, and the IC50 (Estrogen receptor beta) was > 10000 nM and the IC50 (Estrogen receptor) was > 10000 nM.
`O=C1c2ccc(O)cc2C(=O)N1c1ccccc1` was tested, and the IC50 (Estrogen receptor beta) was > 5000 nM and the IC50 (Estrogen receptor) was 2700 nM.
In the case of `O=C1c2ccc(O)cc2C(=O)N1[C@H]1CC[C@H](O)CC1`, the IC50 (Estrogen receptor beta) is reported as > 5000 nM and the IC50 (Estrogen receptor) is reported as > 5000 nM.
Compound `Cc1cc(O)ccc1N1C(=O)c2ccc(O)cc2C1=O` has an IC50 (Estrogen receptor beta) of 2810 nM, a Ratio IC50 (Homo sapiens) of 4 and an IC50 (Estrogen receptor) of 802 nM.
With `O=C1c2ccc(O)cc2C(=O)N1c1ccc(O)cc1[N+](=O)[O-]` the IC50 (Estrogen receptor beta) was 92 nM, the Ratio IC50 (Homo sapiens) was 4 and the IC50 (Estrogen receptor) was 21 nM.
In the case of `O=C1c2ccc(O)cc2C(=O)N1c1cc(O)cc(O)c1`, the IC50 (Estrogen receptor beta) is reported as > 5000 nM and the IC50 (Estrogen receptor) is reported as > 5000 nM.
With `COc1ccc(N2C(=O)c3ccc(O)cc3C2=O)c([N+](=O)[O-])c1` the IC50 (Estrogen receptor beta) was > 5000 nM and the IC50 (Estrogen receptor) was > 5000 nM.
For `COc1cc(Br)c2c(c1)C(=O)N(c1ccc(O)cc1)C2=O`, the IC50 (Estrogen receptor beta) was > 5000 nM and the IC50 (Estrogen receptor) was > 5000 nM.
`O=C1c2ccc(O)cc2C(=O)N1c1cccc(O)c1` was tested, and the IC50 (Estrogen receptor beta) was > 5000 nM and the IC50 (Estrogen receptor) was 2900 nM.
For `O=C1c2ccc(O)cc2C(=O)N1c1ccc(O)cc1F`, the IC50 (Estrogen receptor beta) was 339 nM, the Ratio IC50 (Homo sapiens) was 6 and the IC50 (Estrogen receptor) was 53 nM.
In the case of `COc1ccc(N2C(=O)c3ccc(O)cc3C2=O)c(OC)c1`, the IC50 (Estrogen receptor beta) is reported as > 5000 nM and the IC50 (Estrogen receptor) is reported as 2470 nM.
Compound `O=C1c2ccc(O)cc2C(=O)N1c1cccc2c(O)cccc12` has an IC50 (Estrogen receptor beta) of 2810 nM, a Ratio IC50 (Homo sapiens) of 4 and an IC50 (Estrogen receptor) of 802 nM.
